Values quoted from earlier work as cited in paper PMC4198065 (ACS Chemical Neuroscience, 2014).
One block for each substance: values may come before it.

How the values were obtained:
[1] = system: food intake in mice; conditions: effect lasting up to 24 h
[2] = system: food consumption and body weight in rats; conditions: ICV

Substance: AGRP: endogenous antagonist of the MC3R and MC4R (SSRRCVRLHESCLGQQVPCCDPCATCYCRFFNAFCYCRKLGTAMNPCSRT; UniProt O00253 83-132, looked up)
food intake after central administration [1]: robustly increased food intake

Substance: Ac-Nle-c[Asp-His-DPhe-Arg-Trp-Lys]-NH2 (sidechain bridge or staple) [MTII]
48 h food consumption ([2]; 1.0 nmol dose): reduced 48 h food consumption
body weight post treatment ([2]; at 24 and 48 h (0.1 and 1.0 nmol doses, respectively)): reduced body weight at 24 and 48 h

half-life in human serum: 1.5 h
Substance: Ac-RRWWRF-NH2 [AST789-13, Ac-RRWWRF-NH2]
